Each block holds one molecule with its values, some of them ahead of it.
Legend:
[1] = method code SF, from DOI: 10.1016/0223-5234(90)90118-m

logP [1]: 2.45
SMILES: CC(=O)Nc1ccc2nn(C3CCCC3)nc2c1

logP [1]: 4.95
SMILES: O=C(Nc1ccc2nn(C3CCCC3)nc2c1)c1ccc(C(F)(F)F)cc1

logP [1]: 4.03
SMILES: COc1ccc(C(=O)Nc2ccc3nn(C4CCCC4)nc3c2)cc1

logP [1]: 3.85
SMILES: O=C(Nc1ccc2nn(C3CCCC3)nc2c1)c1ccccc1

logP [1]: 2.78
SMILES: O=C(CCl)Nc1ccc2nn(C3CCCC3)nc2c1

logP: 4.11
SMILES: O=C(Nc1ccc2nn(C3CCCC3)nc2c1)c1ccc(Cl)cc1

logP: 5.32
SMILES: O=C(Nc1ccc2nn(C3CCCC3)nc2c1)c1ccc(Cl)c(Cl)c1

logP [1]: 3.75
SMILES: O=C(Nc1ccc2nn(C3CCCC3)nc2c1)c1ccc([N+](=O)[O-])cc1

The next lines start with the molecule.

SMILES: O=C(Nc1ccc2nn(C3CCCC3)nc2c1)C(Cl)(Cl)Cl
logP [1]: 4.12

SMILES: CS(=O)(=O)Nc1ccc2nn(C3CCCC3)nc2c1
logP [1]: 2.44

SMILES: CCOC(=O)Nc1ccc2nn(C3CCCC3)nc2c1
logP [1]: 3.43

SMILES: Cc1ccc(S(=O)(=O)Nc2ccc3nn(C4CCCC4)nc3c2)cc1
logP: 3.91

SMILES: CC(=O)N(C(C)=O)c1ccc2nn(C3CCCC3)nc2c1
logP: 2.73

SMILES: O=C(Nc1ccc2nn(C3CCCC3)nc2c1)C(Cl)Cl
logP: 3.4

SMILES: O=[N+]([O-])c1ccc(S(=O)(=O)Nc2ccc3nn(C4CCCC4)nc3c2)cc1
logP: 3.82

SMILES: COc1cc(C(=O)Nc2ccc3nn(C4CCCC4)nc3c2)cc(OC)c1OC
logP: 3.87

SMILES: CC(C)COC(=O)Nc1ccc2nn(C3CCCC3)nc2c1
logP [1]: 4.28

SMILES: CC(C)(C)C(=O)c1cccc2nn(C3CCCC3)nc12
logP: 3.4
